“And” between values parts separate entries of the source, which are not always exact repeats. Identical values can stand only once.
Assays:
[1] = test system: BCL-xL/PROTAC/VCB ternary complex (HiBit-BCL-xL, HaloTag-VHL); experiment: NanoBRET intracellular ternary complex formation in 293T cells, BCL-xL; type: cell-based, human; details: for NanoBRET signal (610/450 ratio, background-subtracted), Ave, Bcl-xl / NanoBRET ratio (610/450 x1000, background-subtracted), Bcl-xl, Ave: Ave of Read1 and Read2; for NanoBRET signal (610/450 ratio, background-subtracted), Ave, Bcl-xl: per replicate well; for NanoBRET signal (610/450 ratio, background-subtracted), Read1, Bcl-xl / NanoBRET signal (610/450 ratio, background-subtracted), Read2, Bcl-xl: individual replicate wells; for NanoBRET ratio (610/450 x1000, background-subtracted), Bcl-xl, Ave / NanoBRET ratio (610/450 x1000, background-subtracted), Bcl-xl, Read1 / NanoBRET ratio (610/450 x1000, background-subtracted), Bcl-xl, Read2: 293T cells, triplicate wells
Excerpt: (§1) Plasmids HaloTag-VHL (Cat. No. CS1679C155) and CMV HiBit (Cat. No. CS1956B03) were purchased from Promega. HiBit-BCL-xL and HiBit-BCL-2 were constructed previously. The two mutants (HiBit-BCL-xL-K157-only and HiBit-BCL-xL-K-ko) were constructed through Gibson assembly method. The primer pair (5′-[…]-3′ and 5′-[…]c[…]-3′) and the template Flag-BCL-xL-K157-only or Flag-BCL-xL-K-ko (pDL2129)[2] were used to clone the BCL-xL-K157-only-containing and BCL-xL-K-ko-containing fragments, respectively. The primer pair (5′-[…]g[…]-3′ and 5′-[…]-3′) and pBit3.1-N (Cat. No. N2361, Promega) were used to clone the vector-containing fragment. The PCR fragments were assembled using NEBuilder® HiFi DNA Assembly Master Mix (Cat. No. E2621, NEB, Ipswich, MA, USA). DNA sequences in all these plasmids were authenticated by automatic sequencing. […] After 24 h, 2 × 10^4 transfected cells were seeded into white 96-well tissue culture plates in Gibco™ Opti-MEM™ I Reduced Serum Medium, No Phenol Red (Cat. No. 11-058-021, Fisher) containing 4% FBS with or without HaloTag NanoBRET 618 Ligand (Cat. No. PRN1662, Promega) and incubated overnight at 37 °C, 5% CO2. The following day, serial diluted compounds were added into the medium and plates were incubated at 37 °C, 5% CO2, for 6 h. After treatment, NanoBRET Nano-Glo Substrate (cat. no. N1662, Promega) was added into the medium, and the contents were mixed by shaking the plate for 30 s before measuring donor and acceptor signals on Biotek plate reader. Dual-filtered luminescence was collected with a 450/50 nm bandpass filter (donor, NanoBiT-BCL-XL protein or NanoBiT-BCL-2 protein) and a 610-nm longpass filter (acceptor, HaloTag NanoBRET ligand) using an integration time of 0.5 s. mBRET ratios were calculated following the NanoBRET™ Nano-Glo® Detection System (Cat. No. N1662, Promega).

[2] = test system: BCL-2/PROTAC/VCB ternary complex (HiBit-BCL-2, HaloTag-VHL); experiment: NanoBRET intracellular ternary complex formation in 293T cells, BCL-2; type: cell-based, human; details: for NanoBRET signal (610/450 ratio, background-subtracted), Ave, Bcl-2 / NanoBRET ratio (610/450 x1000, background-subtracted), Bcl-2, Ave: Ave of Read1 and Read2; for NanoBRET signal (610/450 ratio, background-subtracted), Ave, Bcl-2: per replicate well; for NanoBRET signal (610/450 ratio, background-subtracted), Read1, Bcl-2 / NanoBRET signal (610/450 ratio, background-subtracted), Read2, Bcl-2: individual replicate wells; for NanoBRET ratio (610/450 x1000, background-subtracted), Bcl-2, Ave / NanoBRET ratio (610/450 x1000, background-subtracted), Bcl-2, Read1 / NanoBRET ratio (610/450 x1000, background-subtracted), Bcl-2, Read2: 293T cells, triplicate wells
Excerpt: as §1

Compound	NanoBRET signal (610/450 ratio, background-subtracted), Ave, Bcl-xl ([1]; 0.333 uM)	NanoBRET signal (610/450 ratio, background-subtracted), Read1, Bcl-xl ([1]; 0.333 uM)	NanoBRET signal (610/450 ratio, background-subtracted), Read2, Bcl-xl ([1]; 0.333 uM)	NanoBRET signal (610/450 ratio, background-subtracted), Ave, Bcl-xl ([1]; 1 uM)	NanoBRET signal (610/450 ratio, background-subtracted), Read1, Bcl-xl ([1]; 1 uM)	NanoBRET signal (610/450 ratio, background-subtracted), Read2, Bcl-xl ([1]; 1 uM)	NanoBRET signal (610/450 ratio, background-subtracted), Ave, Bcl-xl ([1]; 3 uM)	NanoBRET signal (610/450 ratio, background-subtracted), Read1, Bcl-xl ([1]; 3 uM)	NanoBRET signal (610/450 ratio, background-subtracted), Read2, Bcl-xl ([1]; 3 uM)	NanoBRET signal (610/450 ratio, background-subtracted), Ave, Bcl-2 ([2]; 0.333 uM)	NanoBRET signal (610/450 ratio, background-subtracted), Read1, Bcl-2 ([2]; 0.333 uM)	NanoBRET signal (610/450 ratio, background-subtracted), Read2, Bcl-2 ([2]; 0.333 uM)	NanoBRET signal (610/450 ratio, background-subtracted), Ave, Bcl-2 ([2]; 1 uM)	NanoBRET signal (610/450 ratio, background-subtracted), Read1, Bcl-2 ([2]; 1 uM)	NanoBRET signal (610/450 ratio, background-subtracted), Read2, Bcl-2 ([2]; 1 uM)	NanoBRET signal (610/450 ratio, background-subtracted), Ave, Bcl-2 ([2]; 3 uM)	NanoBRET signal (610/450 ratio, background-subtracted), Read1, Bcl-2 ([2]; 3 uM)	NanoBRET signal (610/450 ratio, background-subtracted), Read2, Bcl-2 ([2]; 3 uM)	other results
Cc1ncsc1-c1ccc(C(C)NC(=O)C2CC(O)CN2C(=O)C(NC(=O)CCCCCCCCC(=O)N2CCN(CC3(C)CCC(c4ccc(Cl)cc4)=C(CN4CCN(c5ccc(C(=O)NS(=O)(=O)c6ccc(NC(CCN7CCOCC7)CSc7ccccc7)c(S(=O)(=O)C(F)(F)F)c6)cc5)CC4)C3)CC2)C(C)(C)C)cc1 (mixture of isomers) [319-C10]	7.322 and 6.232 and 5.134	7.3 and 6.35 and 5.398	7.344 and 6.1137 and 4.87	7.385 and 6.082 and 6.14	7.049 and 5.821 and 5.916	7.722 and 6.342 and 6.364	5.435 and 6.539 and 6.402	5.79 and 7.0778 and 5.898	5.08 and 6.001 and 6.906	5.28 and 5.803 and 5.204	5.21 and 6.342 and 5.353	5.35 and 5.263 and 5.054	6.3574 and 6.177 and 5.647	6.493 and 6.555 and 5.614	6.221 and 5.799 and 5.68	5.897 and 6.959 and 6.718	5.772 and 7.082 and 6.87	6.022 and 6.837 and 6.566	
Cc1ncsc1-c1ccc(C(C)NC(=O)C2CC(O)CN2C(=O)C(NC(=O)CCCCCCCCCC(=O)N2CCN(CC3(C)CCC(c4ccc(Cl)cc4)=C(CN4CCN(c5ccc(C(=O)NS(=O)(=O)c6ccc(NC(CCN7CCOCC7)CSc7ccccc7)c(S(=O)(=O)C(F)(F)F)c6)cc5)CC4)C3)CC2)C(C)(C)C)cc1 (mixture of isomers) [319-C11]	5.756 and 6.621 and 6.037	6.07 and 6.538 and 6.1116	5.442 and 6.704 and 5.963	5.696 and 5.538 and 6.106	5.861 and 5.46 and 6.469	5.532 and 5.616 and 5.743	5.386 and 5.324 and 6.583	5.512 and 5.444 and 6.844	5.259 and 5.204 and 6.3216	4.383 and 4.153 and 4.737	4.892 and 4.708 and 4.979	3.874 and 3.599 and 4.495	4.831 and 5.865 and 5.494	4.901 and 5.9757 and 5.389	4.762 and 5.754 and 5.599	4.755 and 5.241 and 5.369	5 and 5.455 and 5.5909	4.5106 and 5.027 and 5.1462	
Cc1ncsc1-c1ccc(C(C)NC(=O)C2CC(O)CN2C(=O)C(NC(=O)CCCCCCC(=O)N2CCN(CC3(C)CCC(c4ccc(Cl)cc4)=C(CN4CCN(c5ccc(C(=O)NS(=O)(=O)c6ccc(NC(CCN7CCOCC7)CSc7ccccc7)c(S(=O)(=O)C(F)(F)F)c6)cc5)CC4)C3)CC2)C(C)(C)C)cc1 (mixture of isomers) [319-C8]	7.726 and 6.163 and 6.736	7.612 and 5.878 and 6.37	7.841 and 6.448 and 7.103	7.132 and 7.494 and 7.451	7.4 and 7.483 and 8.183	6.864 and 7.506 and 6.7195	8.664 and 8.41 and 8.787	9.315 and 7.583 and 8.729	8.012 and 9.238 and 8.844	6.709 and 6.763 and 6.945	6.876 and 6.829 and 6.839	6.543 and 6.698 and 7.051	8.276 and 7.6621 and 8.376	8.792 and 8.054 and 8.836	7.759 and 7.2706 and 7.917	8.696 and 8.738 and 7.9326	8.912 and 9.6864 and 8.129	8.48 and 7.79 and 7.737	
Cc1ncsc1-c1ccc(C(C)NC(=O)C2CC(O)CN2C(=O)C(NC(=O)CCCC(=O)N2CCN(CC3(C)CCC(c4ccc(Cl)cc4)=C(CN4CCN(c5ccc(C(=O)NS(=O)(=O)c6ccc(NC(CCN7CCOCC7)CSc7ccccc7)c(S(=O)(=O)C(F)(F)F)c6)cc5)CC4)C3)CC2)C(C)(C)C)cc1 (mixture of isomers) [319-C5]																			NanoBRET ratio (610/450 x1000, background-subtracted), Bcl-xl, Ave ([1]; 0.333 uM): 6.339 and 5.781 and 6.072; NanoBRET ratio (610/450 x1000, background-subtracted), Bcl-xl, Read1 ([1]; 0.333 uM): 6.257 and 5.719 and 6.3849; NanoBRET ratio (610/450 x1000, background-subtracted), Bcl-xl, Read2 ([1]; 0.333 uM): 6.422 and 5.844 and 5.759; NanoBRET ratio (610/450 x1000, background-subtracted), Bcl-xl, Ave ([1]; 1 uM): 5.241 and 6.025 and 7.398; NanoBRET ratio (610/450 x1000, background-subtracted), Bcl-xl, Read1 ([1]; 1 uM): 5.522 and 5.988 and 7.452; NanoBRET ratio (610/450 x1000, background-subtracted), Bcl-xl, Read2 ([1]; 1 uM): 4.96 and 6.062 and 7.344; NanoBRET ratio (610/450 x1000, background-subtracted), Bcl-xl, Ave ([1]; 3 uM): 5.367 and 5.631 and 6.141; NanoBRET ratio (610/450 x1000, background-subtracted), Bcl-xl, Read1 ([1]; 3 uM): 5.5804 and 5.686 and 6.375; NanoBRET ratio (610/450 x1000, background-subtracted), Bcl-xl, Read2 ([1]; 3 uM): 5.154 and 5.575 and 5.907; NanoBRET ratio (610/450 x1000, background-subtracted), Bcl-2, Ave ([2]; 0.333 uM): 5.628 and 6.032 and 6.002; NanoBRET ratio (610/450 x1000, background-subtracted), Bcl-2, Read1 ([2]; 0.333 uM): 5.8735 and 6.598 and 5.9581; NanoBRET ratio (610/450 x1000, background-subtracted), Bcl-2, Read2 ([2]; 0.333 uM): 5.383 and 5.466 and 6.046; NanoBRET ratio (610/450 x1000, background-subtracted), Bcl-2, Ave ([2]; 1 uM): 7.014 and 6.158 and 6.868; NanoBRET ratio (610/450 x1000, background-subtracted), Bcl-2, Read1 ([2]; 1 uM): 6.748 and 6.437 and 7.054; NanoBRET ratio (610/450 x1000, background-subtracted), Bcl-2, Read2 ([2]; 1 uM): 7.2789 and 5.879 and 6.683; NanoBRET ratio (610/450 x1000, background-subtracted), Bcl-2, Ave ([2]; 3 uM): 6.77 and 7.133 and 6.868; NanoBRET ratio (610/450 x1000, background-subtracted), Bcl-2, Read1 ([2]; 3 uM): 6.63 and 7.268 and 6.8218; NanoBRET ratio (610/450 x1000, background-subtracted), Bcl-2, Read2 ([2]; 3 uM): 6.909 and 6.997 and 6.914

— PMC8617031, “Development of a BCL-xL and BCL-2 dual degrader with improved anti-leukemic activity,” (Nature Communications, 2021)
